According to US20260294852A1, “COSMETIC COMPOSITION FOR PREVENTING, ALLEVIATING OR AMELIORATING ALOPECIA” (LG CHEM, LTD., priority 2023, published 2026):

Assays:
[1] = tested on: human hair follicles; assay: Evaluation of the ratio of hair follicle telogen in DHT-treated anagen hair follicle tissue (ex vivo culture); assay type: cell-based; conditions: for Telogen ratio: 6 days vs day 0
Experimental: (§1) The ratio of hair follicle telogen and the expression level of hair follicle cell proliferation-related factor proteins depending on whether 3-hydroxypropionic acid was applied or not were evaluated according to the following methods.
The human hair follicles or scalp tissues provided for research purposes (IRB No. 4-2023-1052; Institutional Review Board, Severance Medical Center, Yonsei University College of Medicine) were washed several times with PBS to remove residual impurities, and randomly divided into each group. The hair follicles and scalp tissues were cultured in Williams' Medium E (Sigma) supplemented with 2 mM L-glutamine (Sigma-Aldrich), 10 μg/ml insulin (Sigma-Aldrich), 100 ng/ml hydrocortisone (Sigma-Aldrich), 0.1% fungizone (Gibco, USA), and 1% antibiotic-antimycotic (Gibco), and 1% penicillin-[…] (Gibco) at 37° C. in 5% CO2.
To induce the telogen in the anagen hair follicle tissue, the test composition was treated with 1 μM dihydrotestosterone (DHT). The medium was replaced every 3 days and cultured for 6 days. The ratio of hair follicle telogen was visually evaluated based on the ratio of hair follicles in which the telogen occurred for 6 days compared to day 0.

[2] = tested on: Human follicle dermal papilla cells; assay: Human follicle dermal papilla cell viability (WST / CCK-8); assay type: cell-based; conditions: for Human follicle dermal papilla cell viability: 24 hours
Experimental: (§2) Human follicle dermal papilla cells (PromoCell GmbH) were cultured in human follicle dermal papilla cells growth medium (PromoCell GmbH) supplemented with fetal calf serum (FCS), bovine pituitary extract (BPE), basic fibroblast growth factor (bFGF), and insulin at 37° C. and 5% CO2.
The cultured human follicle dermal papilla cells were divided into 5×10^3 cells in a 96-well plate, and when the cells reached 80% or more confluency, they were treated with the 3-hydroxypropionic acid aqueous solution according to Preparation Example 1 at four concentrations ([…]), and then cultured for 24 hours. WST substrate solution (high sensitivity water soluble tetrazolium salt, CCK-8, DOJINDO) was then added to the medium, and cultured at 37° C. for 2 hours.
During the culture, a […] formazan was produced by the reaction between WST and intracellular dehydrogenase, and the absorbance (OD, wavelength 450 nm) was measured.
In Equation 1, the ‘experimental group’ is the group treated with an aqueous solution containing 3HP; the ‘control group’ is the medium containing only the WST substrate; and the ‘negative control group’ is the group in which a medium containing WST substrate was treated with an aqueous solution of 0% 3HP.

[3] = tested on: Ki67; assay: Expression of cell proliferation-related factor protein Ki67 (immunofluorescence) in cultured scalp tissue; assay type: cell-based, human; conditions: 0.1% 3HP, compared to the negative control group
Experimental: as §1
The human hair follicles or scalp tissues provided for research purposes (IRB No. 4-2023-1052; Institutional Review Board, Severance Medical Center, Yonsei University College of Medicine) were washed several times with PBS to remove residual impurities, and randomly divided into each group. […]
After the scalp tissue was treated with the test composition for 24 hours, the obtained tissue was prepared into a frozen block, and frozen sectioned at a thickness of 5 μm using a Cryostat microtome (Leica Biosystems, Germany), and the tissue sections were attached onto Silane-coated slides. […] Finally, the tissues were fixed with a fixative containing blue fluorescent DAPI (VECTASHIELD® mounting medium with DAPI; Vector laboratories) that stains the cell nucleus, and then images were taken at 100× magnification using a fluorescence microscope (M2; Zeiss). The percentage of Ki67-expressing cells among the total cells labeled with DAPI was measured from the captured images, and a higher value means a higher number of Ki67-expressing cells.

[4] = tested on: TGF-β1 gene; assay: TGF-β1 gene expression level (real-time PCR, GAPDH-normalised) in human follicle dermal papilla cells; assay type: cell-based; conditions: for mrna remaining at 0.0125 % / mrna remaining at 0.025 % / mrna remaining at 0.05 %: Homo sapiens, 24 h, 24 hours; for mrna remaining at 0.0125 %: 3HP 0.0125 wt. %; for mrna remaining at 0.025 %: 3HP 0.025 wt. %; for mrna remaining at 0.05 %: 3HP 0.05 wt. %
Experimental: as §2
(§3) The cultured human follicle dermal papilla cells were divided into 5×10^4 cells in a 96-well plate, and when the cells reached 80% or more confluency, they were treated with the 3-hydroxypropionic acid aqueous solution according to Preparation Example 1 at four concentrations (3HP concentrations: 0 wt. %, 0.0125 wt. %, 0.025 wt. %, and 0.05 wt. %), and then cultured for 24 hours. Then, the total RNA in the cells was extracted, and cDNA was synthesized from the extracted RNA. The synthesized cDNA was subjected to real-time polymerase chain reaction. And, the relative quantitative analysis of each gene was performed using GAPDH (one of the house-keeping genes). The relative quantification (RQ) value was calculated according to the following Equation 2.
(§4) In the Equation 2, ‘Treatment’ is the group treated with 3HP; ‘Control’ is the group not treated with 3HP; ‘Target gene’ is Srd5α1 and TGF-β1, and ‘House-keeping gene’ is GAPDH.

[5] = tested on: 5α-reductase gene (Srd5α1); assay: 5α-reductase gene expression level (real-time PCR, GAPDH-normalised) in human follicle dermal papilla cells; assay type: cell-based; conditions: for mrna remaining at 0.0125 % / mrna remaining at 0.025 % / mrna remaining at 0.05 %: Homo sapiens, 24 h, 24 hours; for mrna remaining at 0.0125 %: 3HP 0.0125 wt. %; for mrna remaining at 0.025 %: 3HP 0.025 wt. %; for mrna remaining at 0.05 %: 3HP 0.05 wt. %
Experimental: as §2, §3, §4

[6] = under the treatment concentration

C[C@]12CCC(=O)C[C@@H]1CC[C@@H]1[C@@H]2CC[C@]2(C)[C@@H](O)CC[C@@H]12 [DHT, dihydrotestosterone, reference compound]
Telogen ratio ([1]; 1 μM DHT alone (telogen inducer), Control 36.667): 40.000%

CC(C)(C)NC(=O)[C@H]1CC[C@H]2[C@@H]3CC[C@H]4NC(=O)C=C[C@]4(C)[C@H]3CC[C@]12C [Finasteride, reference compound]
Telogen ratio ([1]; DHT (1 μM) + 0.5 mM Finasteride, DHT alone 40.000): 0.000%

O=C(O)CCO [3HP, 3-hydroxypropionic acid]
Human follicle dermal papilla cell viability ([2]; 3HP 0.025 wt. %, Average, SD 2.561, p-value 0.012 vs negative control (100%)): 86.684%
Human follicle dermal papilla cell viability ([2]; 3HP 0.05 wt. %, Average, SD 0.735, p-value 0.001 vs negative control (100%)): 85.841%
Human follicle dermal papilla cell viability ([2]; 3HP 0.05 wt. %, single run: Once): 86.465%
Human follicle dermal papilla cell viability ([2]; 3HP 0.1%, Average, SD 2.416, p-value 0.003 vs negative control (100%)): 75.333%
cell viability (in words) ([2]; under the above treatment concentrations): high
proliferation effect of hair follicle cells (in words) [3]: significantly increased
hair follicle telogen ratio (in words) ([1]; 0.1%, 0.5%, and 1.0% 3HP, compared to the DHT control group): significantly decreased
Telogen ratio ([1]; DHT (1 μM) + 0.5% 3HP, DHT alone 40.000): 0.000%
Telogen ratio ([1]; DHT (1 μM) + 1.0% 3HP, DHT alone 40.000): 0.000%
mrna remaining at 0.0125 % ([4]; single run: Three times): 78.5%
mrna remaining at 0.0125 % ([4]; single run: Two times): 86.4%
mrna remaining at 0.025 % ([4]; single run: Three times): 65.5%
mrna remaining at 0.025 % ([4]; single run: Two times): 72.3%
mrna remaining at 0.05 % ([4]; single run: Once): 131%
mrna remaining at 0.05 % ([4]; single run: Three times): 118%
mrna remaining at 0.05 % ([4]; single run: Two times): 140%
expression of the TGF-β1 gene (in words) [4, 6]: significantly inhibited
mrna remaining at 0.0125 % ([5]; single run: Three times): 92.7%
mrna remaining at 0.0125 % ([5]; single run: Two times): 81.5%
mrna remaining at 0.025 % ([5]; single run: Three times): 91.4%
mrna remaining at 0.025 % ([5]; single run: Two times): 88%
mrna remaining at 0.05 % ([5]; single run: Once): 132%
mrna remaining at 0.05 % ([5]; single run: Three times): 135%
mrna remaining at 0.05 % ([5]; single run: Two times): 113%
expression of the 5α-reductase gene (in words) [5, 6]: significantly inhibited

O=C(O)CCCC[C@@H]1SC[C@@H]2NC(=O)N[C@@H]21 [Biotin, reference compound]
Telogen ratio ([1]; DHT (1 μM) + 2 ng/ml Biotin, DHT alone 40.000): 10.000%
